Calls of active or inactive are those of the source.
Tests used:
[1] = molecular target: T1, Fatty acid synthase (Homo sapiens, UniProt P49327); test: inhibition of human FAS-TE enzyme activity – biochemical, endpoint fluorescence intensity, uHTS hits, dose response (AID 624327); type: functional;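 note: fluorescence from hydrolysis of an O-methyl fluorescein acyl ester substrate by the enzyme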
[2] = molecular target: T2, Protein RecA (Mycobacterium tuberculosis, UniProt P9WHJ3); test: Fluorescence Cell-Free Homogeneous Dose Retest to Identify Inhibitors of RecA-Intein Splicing Activity. [Related pubchem assays (depositor defined):AID2097, AID2223, AID489010, AID492950]; type: functional
T2 sequence (P9WHJ3 whole entry): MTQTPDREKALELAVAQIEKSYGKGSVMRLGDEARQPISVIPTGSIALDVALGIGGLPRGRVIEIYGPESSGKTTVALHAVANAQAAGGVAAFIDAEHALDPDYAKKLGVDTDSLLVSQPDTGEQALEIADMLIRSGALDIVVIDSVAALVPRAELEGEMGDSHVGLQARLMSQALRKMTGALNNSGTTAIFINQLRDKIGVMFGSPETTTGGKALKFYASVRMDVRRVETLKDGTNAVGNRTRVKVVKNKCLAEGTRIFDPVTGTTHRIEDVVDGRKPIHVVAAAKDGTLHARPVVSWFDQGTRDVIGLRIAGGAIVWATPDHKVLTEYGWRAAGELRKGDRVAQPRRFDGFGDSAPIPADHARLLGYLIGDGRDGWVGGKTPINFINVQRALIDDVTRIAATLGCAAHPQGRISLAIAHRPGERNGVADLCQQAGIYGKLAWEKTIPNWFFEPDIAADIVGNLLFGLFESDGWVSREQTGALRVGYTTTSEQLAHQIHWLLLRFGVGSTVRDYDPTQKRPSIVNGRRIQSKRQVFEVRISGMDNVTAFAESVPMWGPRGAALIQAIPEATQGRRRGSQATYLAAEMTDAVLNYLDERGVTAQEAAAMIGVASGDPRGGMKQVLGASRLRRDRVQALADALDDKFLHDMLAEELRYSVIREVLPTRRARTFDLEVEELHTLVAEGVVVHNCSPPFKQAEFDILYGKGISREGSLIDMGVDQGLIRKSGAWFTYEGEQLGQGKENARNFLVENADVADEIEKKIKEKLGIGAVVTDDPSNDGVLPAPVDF

[3] = molecular target: T3, Replicative DNA helicase DnaB (Mycobacterium tuberculosis, UniProt P9WMR3); test: DnaB intein splicing inhibitors, dose response, biochemical, cell-free fluorescence (AID 449749); type: functional
T3 sequence (P9WMR3 whole entry): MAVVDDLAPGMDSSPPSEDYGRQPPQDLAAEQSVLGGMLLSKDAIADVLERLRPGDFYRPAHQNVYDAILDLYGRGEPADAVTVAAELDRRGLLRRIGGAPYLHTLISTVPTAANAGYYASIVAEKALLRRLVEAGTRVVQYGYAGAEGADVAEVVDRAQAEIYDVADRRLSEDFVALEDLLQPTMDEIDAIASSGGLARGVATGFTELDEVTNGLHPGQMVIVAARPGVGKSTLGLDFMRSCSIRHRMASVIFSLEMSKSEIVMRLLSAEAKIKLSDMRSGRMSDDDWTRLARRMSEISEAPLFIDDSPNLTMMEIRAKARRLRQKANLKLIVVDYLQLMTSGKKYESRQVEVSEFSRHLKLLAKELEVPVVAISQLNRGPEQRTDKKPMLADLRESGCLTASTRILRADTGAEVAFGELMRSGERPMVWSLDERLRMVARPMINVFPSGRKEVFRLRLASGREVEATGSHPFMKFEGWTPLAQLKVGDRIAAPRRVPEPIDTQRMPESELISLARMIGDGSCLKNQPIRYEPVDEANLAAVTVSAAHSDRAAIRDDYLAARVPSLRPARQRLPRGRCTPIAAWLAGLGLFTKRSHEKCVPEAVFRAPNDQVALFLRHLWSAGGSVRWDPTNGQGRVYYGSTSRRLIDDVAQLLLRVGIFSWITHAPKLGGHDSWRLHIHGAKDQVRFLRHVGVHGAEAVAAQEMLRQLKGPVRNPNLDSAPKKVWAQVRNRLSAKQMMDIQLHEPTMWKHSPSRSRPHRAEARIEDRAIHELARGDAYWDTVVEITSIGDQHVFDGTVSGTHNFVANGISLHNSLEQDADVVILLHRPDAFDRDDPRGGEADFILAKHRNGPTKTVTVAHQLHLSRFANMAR

[4] = molecular target: G-protein coupled receptor 55 (Homo sapiens, UniProt Q9Y2T6); test: inhibition of LPI-stimulated GPR55 beta-arrestin translocation – imaging, U2OS, beta-arrestin-GFP, LPI agonist, primary screen (AID 2013); type: functional;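 note: antagonist potency measured as reduced agonist-driven arrestin aggregation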
[5] = molecular target: T1, Fatty acid synthase; test: inhibition of human FAS-TE enzyme activity – biochemical, kinetic fluorescence intensity, dose response (AID 624326); type: functional;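 note: rate of fluorescence rise from hydrolysis of a fluorogenic O-methyl fluorescein ester substrate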
[6] = molecular target: T4, Exodeoxyribonuclease V (Escherichia coli (strain K12), UniProt P04993+P07648+P08394); test: RecBCD inhibition via phage-restricted bacterial growth – absorbance, V66 E. coli, mutant T4 phage, counter-screen for AddAB inhibitor project, dose response (AID 492957); type: functional, cell-based, Escherichia coli str. K-12 substr. MG1655
T4 sequence (P04993 whole entry): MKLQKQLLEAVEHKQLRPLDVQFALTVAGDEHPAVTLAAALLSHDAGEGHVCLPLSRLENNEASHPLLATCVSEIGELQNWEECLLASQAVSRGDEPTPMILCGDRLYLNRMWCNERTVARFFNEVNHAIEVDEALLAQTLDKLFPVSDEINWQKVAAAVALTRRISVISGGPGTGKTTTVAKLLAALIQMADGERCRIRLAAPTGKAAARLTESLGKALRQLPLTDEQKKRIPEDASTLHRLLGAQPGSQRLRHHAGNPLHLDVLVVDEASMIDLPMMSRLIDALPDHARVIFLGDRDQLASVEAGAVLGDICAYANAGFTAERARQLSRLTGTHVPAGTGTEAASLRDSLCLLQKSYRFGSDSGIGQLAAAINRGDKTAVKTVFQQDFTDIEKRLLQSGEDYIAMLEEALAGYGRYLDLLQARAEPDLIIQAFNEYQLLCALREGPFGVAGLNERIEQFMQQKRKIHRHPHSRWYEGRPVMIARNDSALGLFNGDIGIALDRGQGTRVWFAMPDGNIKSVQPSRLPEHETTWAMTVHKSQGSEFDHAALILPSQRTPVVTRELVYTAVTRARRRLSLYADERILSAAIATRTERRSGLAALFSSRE
T4 sequence (P07648 whole entry): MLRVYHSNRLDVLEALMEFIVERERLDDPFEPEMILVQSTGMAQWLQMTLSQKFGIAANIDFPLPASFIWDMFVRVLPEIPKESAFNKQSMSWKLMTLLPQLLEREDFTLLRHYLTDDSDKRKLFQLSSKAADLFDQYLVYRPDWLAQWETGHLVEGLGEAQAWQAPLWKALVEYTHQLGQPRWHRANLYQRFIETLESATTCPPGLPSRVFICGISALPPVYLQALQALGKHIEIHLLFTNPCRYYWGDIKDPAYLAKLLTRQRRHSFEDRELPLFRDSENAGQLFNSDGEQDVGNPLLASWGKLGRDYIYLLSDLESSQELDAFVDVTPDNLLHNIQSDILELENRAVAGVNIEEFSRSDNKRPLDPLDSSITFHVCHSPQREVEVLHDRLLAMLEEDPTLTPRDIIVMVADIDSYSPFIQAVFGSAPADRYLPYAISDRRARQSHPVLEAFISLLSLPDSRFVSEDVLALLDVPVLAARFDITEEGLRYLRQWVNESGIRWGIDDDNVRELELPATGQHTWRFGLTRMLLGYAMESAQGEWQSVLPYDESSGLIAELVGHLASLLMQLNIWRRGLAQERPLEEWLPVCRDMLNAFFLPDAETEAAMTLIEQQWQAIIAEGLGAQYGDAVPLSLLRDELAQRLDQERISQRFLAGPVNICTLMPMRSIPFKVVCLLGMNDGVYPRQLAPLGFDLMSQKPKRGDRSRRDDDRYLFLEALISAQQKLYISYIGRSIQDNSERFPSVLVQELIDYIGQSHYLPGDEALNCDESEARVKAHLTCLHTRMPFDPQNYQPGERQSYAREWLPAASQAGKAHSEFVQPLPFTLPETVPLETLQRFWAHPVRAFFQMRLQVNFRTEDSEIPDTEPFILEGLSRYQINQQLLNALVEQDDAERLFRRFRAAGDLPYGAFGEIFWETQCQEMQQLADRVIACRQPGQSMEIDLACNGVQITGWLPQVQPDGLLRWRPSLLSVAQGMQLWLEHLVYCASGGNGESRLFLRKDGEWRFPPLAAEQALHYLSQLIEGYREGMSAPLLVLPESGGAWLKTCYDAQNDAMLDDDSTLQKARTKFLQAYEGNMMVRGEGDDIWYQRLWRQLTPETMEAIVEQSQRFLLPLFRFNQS
T4 sequence (P08394 whole entry): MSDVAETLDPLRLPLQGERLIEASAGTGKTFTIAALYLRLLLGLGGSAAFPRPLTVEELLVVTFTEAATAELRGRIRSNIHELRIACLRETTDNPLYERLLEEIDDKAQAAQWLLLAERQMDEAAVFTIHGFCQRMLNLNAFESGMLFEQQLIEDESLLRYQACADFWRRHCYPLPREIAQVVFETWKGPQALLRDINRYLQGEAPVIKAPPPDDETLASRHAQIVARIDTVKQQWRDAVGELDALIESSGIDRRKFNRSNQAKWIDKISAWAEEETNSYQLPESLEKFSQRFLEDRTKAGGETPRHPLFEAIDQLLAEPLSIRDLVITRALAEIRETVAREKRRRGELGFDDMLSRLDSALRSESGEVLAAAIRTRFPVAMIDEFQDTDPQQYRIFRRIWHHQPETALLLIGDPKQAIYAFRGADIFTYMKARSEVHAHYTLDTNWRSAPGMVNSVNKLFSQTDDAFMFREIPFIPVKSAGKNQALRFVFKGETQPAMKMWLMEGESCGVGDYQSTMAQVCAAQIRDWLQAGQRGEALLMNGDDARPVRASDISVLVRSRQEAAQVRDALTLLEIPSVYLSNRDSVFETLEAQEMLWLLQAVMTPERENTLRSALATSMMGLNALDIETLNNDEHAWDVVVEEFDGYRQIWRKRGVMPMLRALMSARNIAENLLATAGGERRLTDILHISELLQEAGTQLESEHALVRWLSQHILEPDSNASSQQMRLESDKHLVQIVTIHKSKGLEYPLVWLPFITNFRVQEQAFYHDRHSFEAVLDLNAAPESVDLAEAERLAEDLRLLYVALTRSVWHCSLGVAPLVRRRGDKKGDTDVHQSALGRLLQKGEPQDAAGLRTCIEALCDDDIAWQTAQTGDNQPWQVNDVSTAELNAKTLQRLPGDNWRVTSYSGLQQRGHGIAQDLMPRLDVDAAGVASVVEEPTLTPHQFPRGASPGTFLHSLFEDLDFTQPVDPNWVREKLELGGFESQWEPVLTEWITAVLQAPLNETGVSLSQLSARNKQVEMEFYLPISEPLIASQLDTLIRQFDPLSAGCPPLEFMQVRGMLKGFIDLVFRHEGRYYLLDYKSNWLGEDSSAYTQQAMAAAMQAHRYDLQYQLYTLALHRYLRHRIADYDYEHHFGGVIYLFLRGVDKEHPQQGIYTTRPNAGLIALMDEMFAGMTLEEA

[7] = Counterscreen for AddAB inhibitors: absorbance-based bacterial cell-based high throughput dose response assay for inhibitors of bacterial viability. [Related pubchem assays (depositor defined):AID435030, AID449728, AID449731, AID488942, AID488955, AID488956]; type: functional
[8] = molecular target: T5, Alkaline phosphatase, tissue-nonspecific isozyme (Homo sapiens, UniProt P05186); test: potency against alkaline phosphatase TNAP – biochemical, luminescent, dose response, SAR follow-up (AID 1056)
T5 sequence (P05186 whole entry): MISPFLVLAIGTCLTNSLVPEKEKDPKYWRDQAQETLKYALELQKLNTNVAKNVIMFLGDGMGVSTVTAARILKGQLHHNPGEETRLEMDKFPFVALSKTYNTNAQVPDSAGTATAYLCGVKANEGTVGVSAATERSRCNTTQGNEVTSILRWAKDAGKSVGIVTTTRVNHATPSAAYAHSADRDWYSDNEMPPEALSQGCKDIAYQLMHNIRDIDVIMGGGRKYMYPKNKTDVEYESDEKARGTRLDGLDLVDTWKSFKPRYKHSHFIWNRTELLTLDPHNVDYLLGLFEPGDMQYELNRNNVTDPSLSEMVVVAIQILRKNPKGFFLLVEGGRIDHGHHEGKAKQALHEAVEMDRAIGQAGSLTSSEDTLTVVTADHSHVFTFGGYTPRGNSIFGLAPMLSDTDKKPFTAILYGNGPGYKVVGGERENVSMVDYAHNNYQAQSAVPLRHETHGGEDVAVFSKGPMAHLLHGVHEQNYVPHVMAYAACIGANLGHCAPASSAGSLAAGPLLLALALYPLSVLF

T1 sequence (P49327 whole entry): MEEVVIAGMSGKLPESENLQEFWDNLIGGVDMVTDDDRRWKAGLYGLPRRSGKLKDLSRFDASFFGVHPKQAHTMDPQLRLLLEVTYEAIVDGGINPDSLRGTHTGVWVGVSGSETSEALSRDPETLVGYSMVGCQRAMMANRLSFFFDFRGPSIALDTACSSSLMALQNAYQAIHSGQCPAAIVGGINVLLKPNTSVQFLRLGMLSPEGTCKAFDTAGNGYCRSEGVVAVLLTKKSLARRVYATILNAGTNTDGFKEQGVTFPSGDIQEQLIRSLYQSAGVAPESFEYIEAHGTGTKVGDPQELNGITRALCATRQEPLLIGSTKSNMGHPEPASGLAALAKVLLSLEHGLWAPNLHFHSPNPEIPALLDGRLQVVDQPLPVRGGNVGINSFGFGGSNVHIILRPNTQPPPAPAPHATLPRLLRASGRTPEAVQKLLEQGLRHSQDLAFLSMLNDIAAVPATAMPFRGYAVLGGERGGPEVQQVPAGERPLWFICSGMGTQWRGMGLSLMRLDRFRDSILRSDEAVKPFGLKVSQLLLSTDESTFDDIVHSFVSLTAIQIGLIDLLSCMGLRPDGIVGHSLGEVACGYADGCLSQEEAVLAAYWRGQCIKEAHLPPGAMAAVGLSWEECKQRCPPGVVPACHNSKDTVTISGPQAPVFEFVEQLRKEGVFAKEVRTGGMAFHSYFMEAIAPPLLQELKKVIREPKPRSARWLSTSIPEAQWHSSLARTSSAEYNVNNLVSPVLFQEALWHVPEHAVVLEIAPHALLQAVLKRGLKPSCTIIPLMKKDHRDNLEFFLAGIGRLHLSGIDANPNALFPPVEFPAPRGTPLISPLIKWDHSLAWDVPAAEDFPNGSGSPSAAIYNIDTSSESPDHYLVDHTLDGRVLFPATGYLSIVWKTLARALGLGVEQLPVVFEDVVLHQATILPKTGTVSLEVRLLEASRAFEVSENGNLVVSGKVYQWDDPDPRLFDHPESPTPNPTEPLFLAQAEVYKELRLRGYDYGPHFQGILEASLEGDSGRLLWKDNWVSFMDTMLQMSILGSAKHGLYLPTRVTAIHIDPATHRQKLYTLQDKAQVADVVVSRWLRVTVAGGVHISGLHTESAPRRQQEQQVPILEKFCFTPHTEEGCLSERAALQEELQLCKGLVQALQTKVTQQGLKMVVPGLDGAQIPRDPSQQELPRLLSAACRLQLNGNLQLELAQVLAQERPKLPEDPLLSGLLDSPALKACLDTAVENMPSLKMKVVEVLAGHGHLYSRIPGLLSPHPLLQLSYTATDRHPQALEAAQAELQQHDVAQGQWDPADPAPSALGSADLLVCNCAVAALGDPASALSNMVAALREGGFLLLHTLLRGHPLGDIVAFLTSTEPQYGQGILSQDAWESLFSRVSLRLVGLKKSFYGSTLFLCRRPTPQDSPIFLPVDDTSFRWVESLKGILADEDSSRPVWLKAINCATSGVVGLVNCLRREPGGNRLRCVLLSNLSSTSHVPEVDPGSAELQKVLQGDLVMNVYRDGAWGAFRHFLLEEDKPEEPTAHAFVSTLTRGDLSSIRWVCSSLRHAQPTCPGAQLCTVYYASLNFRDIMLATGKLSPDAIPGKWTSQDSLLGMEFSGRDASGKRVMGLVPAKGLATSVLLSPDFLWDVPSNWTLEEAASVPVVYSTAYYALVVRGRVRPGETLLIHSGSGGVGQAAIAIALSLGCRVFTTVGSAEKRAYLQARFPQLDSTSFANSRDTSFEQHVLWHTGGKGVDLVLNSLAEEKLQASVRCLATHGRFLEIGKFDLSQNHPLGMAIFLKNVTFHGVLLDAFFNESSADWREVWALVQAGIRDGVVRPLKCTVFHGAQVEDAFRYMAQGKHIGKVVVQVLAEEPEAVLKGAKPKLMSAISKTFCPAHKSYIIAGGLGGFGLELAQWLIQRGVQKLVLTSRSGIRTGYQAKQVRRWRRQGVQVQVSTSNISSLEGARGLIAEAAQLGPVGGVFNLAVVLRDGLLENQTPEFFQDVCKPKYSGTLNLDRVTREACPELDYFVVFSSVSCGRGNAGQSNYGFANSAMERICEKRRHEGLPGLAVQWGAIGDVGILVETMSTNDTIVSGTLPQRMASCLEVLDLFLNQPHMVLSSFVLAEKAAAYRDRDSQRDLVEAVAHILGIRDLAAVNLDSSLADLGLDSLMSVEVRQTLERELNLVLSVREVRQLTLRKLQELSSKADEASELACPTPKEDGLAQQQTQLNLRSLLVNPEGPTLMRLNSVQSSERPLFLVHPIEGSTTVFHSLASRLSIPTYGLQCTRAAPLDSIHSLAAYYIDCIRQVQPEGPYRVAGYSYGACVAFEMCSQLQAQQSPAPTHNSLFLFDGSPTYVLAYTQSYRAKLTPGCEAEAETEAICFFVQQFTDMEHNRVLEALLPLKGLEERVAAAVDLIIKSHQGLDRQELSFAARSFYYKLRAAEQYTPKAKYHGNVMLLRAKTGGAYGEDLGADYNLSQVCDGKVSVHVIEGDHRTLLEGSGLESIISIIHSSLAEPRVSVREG
Chain of G-protein coupled receptor 55 (Q9Y2T6 whole entry): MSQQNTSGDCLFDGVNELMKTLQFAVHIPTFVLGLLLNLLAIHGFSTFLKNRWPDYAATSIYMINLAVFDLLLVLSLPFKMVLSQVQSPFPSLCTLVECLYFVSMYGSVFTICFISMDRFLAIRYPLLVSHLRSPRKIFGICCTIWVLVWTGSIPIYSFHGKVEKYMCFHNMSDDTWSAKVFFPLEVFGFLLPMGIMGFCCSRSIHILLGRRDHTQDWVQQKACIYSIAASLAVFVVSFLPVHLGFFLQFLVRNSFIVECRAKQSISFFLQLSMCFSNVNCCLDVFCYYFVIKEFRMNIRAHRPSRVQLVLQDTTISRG

SMILES: O=C(Nc1ccc(Cl)cc1)C(Cl)C(=O)c1ccccc1 (stereo not drawn)
- IC50 [1]: 4.3 µM (active)
- EC50 [2]: 30.3 µM (active)
- AC50 [3]: 5.89 µM (active)
- IC50 [4]: 1.07 µM (active)
- IC50 [5]: 4.67 µM (active)

SMILES: COc1ccc(-c2cc(N3CCCC3)n3ncnc3n2)cc1
- IC50 [6]: > 119 µM (inactive)
- IC50 [7]: > 119 µM (inactive)

SMILES: O=C(O)c1[nH]nc2c1COc1ccccc1-2
- IC50 [8]: 1.31 µM (active)

Source: ChEMBL document CHEMBL1201862, “PubChem BioAssay data set” (2004)
